The values that follow come from EP1430933A2, “Cosmetic and pharmaceutical compositions comprising steroid sulfatase inhibitors and their use for the reduction of hair loss” (Henkel Kommanditgesellschaft auf Aktien, priority 2002, dated 2004).

This assay deals with T1, Arylsulfatase (EC 3.1.6.1) (Klebsiella aerogenes, UniProt P20713).
T1 construct: purchased Sigma S-1629
T1 sequence (P20713 21-464): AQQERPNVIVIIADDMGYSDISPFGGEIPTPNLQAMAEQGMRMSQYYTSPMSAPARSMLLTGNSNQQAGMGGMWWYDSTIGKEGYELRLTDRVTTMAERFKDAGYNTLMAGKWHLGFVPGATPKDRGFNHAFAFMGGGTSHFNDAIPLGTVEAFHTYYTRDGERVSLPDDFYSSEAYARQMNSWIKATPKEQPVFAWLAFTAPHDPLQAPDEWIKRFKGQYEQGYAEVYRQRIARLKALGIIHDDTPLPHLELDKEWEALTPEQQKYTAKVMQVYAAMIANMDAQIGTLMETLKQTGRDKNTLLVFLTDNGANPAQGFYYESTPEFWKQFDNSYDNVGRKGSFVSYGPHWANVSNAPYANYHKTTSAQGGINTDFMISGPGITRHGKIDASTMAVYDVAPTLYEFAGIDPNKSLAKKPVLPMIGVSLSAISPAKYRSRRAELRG
The assay can be described thus: Arylsulfatase enzyme test (Sigma sulfatase enzyme assay S-1629; p-nitrophenol formation from pNPS, 420 nm). In kind it is biochemical. The conditions noted are these: pH 7,1, 37°C, 8 mM pNPS. The text has this: Überprüfung der inhibitorischen Wirkung der Steroidsulfatase-Inhibitoren (in vitro)
Da die Sulfatase des Haarfollikels nicht zur Verfügung stand, diente eine handelsübliche Arylsulfatase (EC 3.1.6.1) aus Aerobacter aerogenes als Modellenzym, um die Hemmwirkung der erfindungsgemäß verwendeten Inhibitoren zu testen. Die Tests wurden mit dem Sulfatase-Enzymassay Product No. S-1629 von Sigma gemäß den Angaben im Sigma Quality Control Test Procedure-Datenblatt durchgeführt. Als Referenz-Inhibitoren dienten Ascorbinsäure und ATP.
Zur Auswertung wurde die Arylsulfatase-katalysierte Bildung von p-Nitrophenol aus dem Substrat p-Nitrophenylsulfat (pNPS) spektrophotometrisch (λ = 420 nm) verfolgt. Die Reaktionslösungen von 1000 µl, die auf eine Reaktionstemperatur von 37°C temperiert wurden, enthielten 187 mM Tris/HCl (pH 7,1), 8 mM pNPS und eine Startkonzentration von 0,05 U/ml Arylsulfatase. Die Einheit U der Enzymaktivität wurde so definiert, dass 1 U Sulfatase 1,0 µmol pNPS pro Minute bei pH 7,1 und 37°C hydrolysiert. Die Testdurchführung ist auch offenbart bei H.R. Fowler und D. H. Rammler, Biochemistry 3, 230, 1964. Die Reaktion wurde durch Zugabe des Enzyms gestartet und der Anstieg der Absorption bei λ = 420 nm über 5 Minuten verfolgt. Der lineare Anstieg der Absorption (A) pro Zeiteinheit (t) ist hierbei ein Maß für die Aktivität des Enzyms (ΔA/Δt). Die Aktivität des Enzyms in Abwesenheit eines Inhibitors, (ΔA1/Δt1 ), wurde als Referenz gleich 100% gesetzt. Unter analogen Bedingungen wurden die Aktivitäten in Gegenwart eines Inhibitors (ΔA2/Δt2) bestimmt. Die Hemmwirkung des Inhibitors bzw. die Minderung der Enzymaktivität wurde dann berechnet gemäß der Formel 100% - (ΔA2/Δt2 )/( ΔA1/Δt1 )%.

For the substance “Aluminiumchlorohydrat [Aluminiumchlorohydrat (ACH)]”, the Hemmwirkung result reads like this: (ACH-Lösung Locron® L 0,01 % (v/v)) “Keine Hemmung meßbar”; (ACH-Lösung Locron® L 0,1 % (v/v)) 6%; (ACH-Lösung Locron® L 0,5 % (v/v)) 27%; (ACH-Lösung Locron® L 1 % (v/v)) 52%.
